Laboratory results: patent US6399637B1, “Crystal modification of torasemide” (PLIVA, farmaceutska, kemijska, prehrambena i kozmeticka …, priority 1998, dated 2002)

Experiments:
Format in all cases: physicochemical
[1] = Dissolution test of torasemide in water (USP 23); conditions: for % Dissolved torasemide: water, USP 23, 37° C., 50 rpm., 1000 ml
Description: (§1) The microcrystallinic modifications I, II and III of torasemide prepared according to Acta Crst. B34 (1978), 1304-1310 and Example 1 were subjected to dissolution testing in water, and in artificial intestinal juice, at 37° C.

[2] = Dissolution test in artificial intestinal juice (USP 23)
Description: as §1

[3] = Intrinsic Dissolution Rate in a model of artificial gastric juice
[4] = Stability of the crystal modification on storage and at increased humidity

Structure (SMILES)	% Dissolved torasemide ([1]; 0 minutes) [%]	% Dissolved torasemide ([1]; 10 minutes) [%]	% Dissolved torasemide ([1]; 20 minutes) [%]	% Dissolved torasemide ([1]; 30 minutes) [%]	% Dissolved torasemide ([1]; 40 minutes) [%]	% Dissolved torasemide ([1]; 50 minutes) [%]	% Dissolved torasemide ([1]; 60 minutes) [%]	dissolution profile (USP 23) in comparison to known crystal modifications I and II ([1]; in water)	dissolution profile (USP 23) in comparison to known crystal modifications I and II [2]	IDR (Intrinsic Dissolution Rate) [3]	stability of the crystal modification (no transformation into modification I or II) ([4]; normal storage conditions)	stability of the crystal modification (no transformation into modification I or II) ([4]; subjected to increased humidity)
Cc1cccc(Nc2ccncc2S(=O)(=O)NC(=O)NC(C)C)c1 [Mod. I, N-(1-methylethylaminocarbonyl)-4-(3-methyl-phenylamino)-3-pyridinesulfonamide]	0	6.7	13.0	18.5	23.5	28.5	32.8					
Cc1cccc(Nc2ccncc2S(=O)(=O)NC(=O)NC(C)C)c1 [Mod. II, N-(1-methylethylaminocarbonyl)-4-(3-methyl-phenylamino)-3-pyridinesulfonamide]	0	15.1	27.8	39.2	48.8	56.3	65.1					
Cc1cccc(Nc2ccncc2S(=O)(=O)NC(=O)NC(C)C)c1 [Mod. III, N-(1-methylethylaminocarbonyl)-4-(3-methyl-phenylamino)-3-pyridinesulfonamide]	0	15.6	28.1	37.7	43.6	48.5	51.1	significant difference	significant difference	exceeds 1 mg cm^−2min^−1	stable	stable
